Experimental data: ChEMBL document CHEMBL1201862, “PubChem BioAssay data set” (2004)
Activity calls are given as the source filed them.

Tests used:
[1] = target: T1, Polyadenylate-binding protein 1 (Homo sapiens, UniProt P11940); test: MLLE binding blockers, Cy5 peptide tracer – biochemical, fluorescence polarization, Cy5-PAM2 peptide, secondary, miRNA deadenylation inhibitor project, dose response (AID 602260); type: functional; settings: read-out: IC50_Mean
[2] = target: T1, Polyadenylate-binding protein 1; test: MLLE domain peptide-binding blockers, IC50 – biochemical, fluorescence polarization, FITC-PAM2 peptide, dose response (AID 602259); type: functional; settings: read-out: IC50_Mean
Protein S100-A4 = Protein S100-A4 (Homo sapiens, UniProt P26447); test: human S100A4 peptide interaction inhibition curves – biochemical, fluorescence polarization, cherry-picked hits, dose response (AID 687001); type: functional
[3] = target: T2, Heat shock factor protein 1 (Mus musculus, UniProt P38532); test: decrease of HSF1-responsive luciferase luminescence – cell-based, NIH3T3, dose retest, confirmation (AID 2382); type: functional;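 also: NIH3T3 fibroblasts with HSF1-driven luciferase reporter stressed by proteasome inhibitor MG132; luminescence from HSF1-driven luciferase expression after 8 hours of MG132 stress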
T2 sequence (P38532 whole entry): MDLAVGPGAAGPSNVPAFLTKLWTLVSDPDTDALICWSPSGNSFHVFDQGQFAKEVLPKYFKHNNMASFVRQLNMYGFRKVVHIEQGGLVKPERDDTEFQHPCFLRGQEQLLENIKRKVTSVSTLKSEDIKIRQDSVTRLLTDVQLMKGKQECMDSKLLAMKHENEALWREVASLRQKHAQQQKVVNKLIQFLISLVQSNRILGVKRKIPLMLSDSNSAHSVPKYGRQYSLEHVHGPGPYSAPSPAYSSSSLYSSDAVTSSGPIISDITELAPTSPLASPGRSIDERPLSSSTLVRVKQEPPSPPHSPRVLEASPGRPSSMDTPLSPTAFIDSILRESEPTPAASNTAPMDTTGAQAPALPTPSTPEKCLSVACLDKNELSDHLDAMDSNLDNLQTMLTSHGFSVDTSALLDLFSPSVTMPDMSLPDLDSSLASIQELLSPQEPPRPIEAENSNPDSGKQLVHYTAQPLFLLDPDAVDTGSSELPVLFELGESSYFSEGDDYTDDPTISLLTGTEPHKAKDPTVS

Interleukin-8 [4] = target: T3, Interleukin-8 (Homo sapiens, UniProt P10145); test: Dose Response confirmation of uHTS small molecule hits for cystic fibrosis induced NFkb Inhibitors in a TNFa-induced IL8 counterscreen.; type: functional; settings: read-out: IC50_Mean
T3 sequence (P10145 whole entry): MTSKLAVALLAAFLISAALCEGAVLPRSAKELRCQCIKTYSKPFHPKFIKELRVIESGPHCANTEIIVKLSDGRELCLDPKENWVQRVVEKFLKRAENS

Interleukin-8 [5] = target: T3, Interleukin-8; test: Dose Response confirmation of uHTS small molecule hits for cystic fibrosis induced NFkb Inhibitors in a PAF-induced IL8 counterscreen.; type: functional; settings: read-out: IC50_Mean
[6] = target: Nuclear receptor subfamily 5 group A member 2 (Homo sapiens, UniProt O00482); type: functional, cell-based;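 also: HEK293T cells transfected with LRH-1 and a StAR promoter luciferase reporter; potency for inhibitors that lower LRH-1 driven reporter light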
Steroidogenic factor 1 = Steroidogenic factor 1 (Homo sapiens, UniProt Q13285); test: Counterscreen for inverse agonists of the liver receptor homolog-1 (LRH-1; NR5A2): Luminescence-based cell-based high throughput dose response assay to identify inverse agonists of the Steroidogenic Factor 1 Nuclear Receptor (SF1; NR5A1).; type: functional
[7] = nonselective StAR promoter luciferase inhibitors – cell-based, luminescence, luciferase reporter, counter-screen for LRH-1 inverse agonist project, dose response (AID 651969); type: functional
Mu-type opioid receptor = Mu-type opioid receptor (Homo sapiens, UniProt P35372); type: functional, cell-based;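 also: U2OS cells with beta-arrestin recruitment to OPRM1 by beta-gal complementation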
[8] = target: 5-hydroxytryptamine receptor 2A (Mus musculus, UniProt P35363); type: functional, cell-based;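 also: CHO-K1 cells with tagged receptor and beta-arrestin; agonist potency measured as compound-induced activation of the receptor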
Vero = test: viability loss in Vero cells – cell-based, plate reader, cherry-pick samples, cytotoxicity control, dose response (AID 687020); type: functional; settings: Chlorocebus sabaeus
[9] = target: T4, Replicative DNA helicase DnaB (Mycobacterium tuberculosis, UniProt P9WMR3); test: DnaB intein splicing inhibitors, dose response, biochemical, cell-free fluorescence (AID 449749); type: functional
T4 sequence (P9WMR3 whole entry): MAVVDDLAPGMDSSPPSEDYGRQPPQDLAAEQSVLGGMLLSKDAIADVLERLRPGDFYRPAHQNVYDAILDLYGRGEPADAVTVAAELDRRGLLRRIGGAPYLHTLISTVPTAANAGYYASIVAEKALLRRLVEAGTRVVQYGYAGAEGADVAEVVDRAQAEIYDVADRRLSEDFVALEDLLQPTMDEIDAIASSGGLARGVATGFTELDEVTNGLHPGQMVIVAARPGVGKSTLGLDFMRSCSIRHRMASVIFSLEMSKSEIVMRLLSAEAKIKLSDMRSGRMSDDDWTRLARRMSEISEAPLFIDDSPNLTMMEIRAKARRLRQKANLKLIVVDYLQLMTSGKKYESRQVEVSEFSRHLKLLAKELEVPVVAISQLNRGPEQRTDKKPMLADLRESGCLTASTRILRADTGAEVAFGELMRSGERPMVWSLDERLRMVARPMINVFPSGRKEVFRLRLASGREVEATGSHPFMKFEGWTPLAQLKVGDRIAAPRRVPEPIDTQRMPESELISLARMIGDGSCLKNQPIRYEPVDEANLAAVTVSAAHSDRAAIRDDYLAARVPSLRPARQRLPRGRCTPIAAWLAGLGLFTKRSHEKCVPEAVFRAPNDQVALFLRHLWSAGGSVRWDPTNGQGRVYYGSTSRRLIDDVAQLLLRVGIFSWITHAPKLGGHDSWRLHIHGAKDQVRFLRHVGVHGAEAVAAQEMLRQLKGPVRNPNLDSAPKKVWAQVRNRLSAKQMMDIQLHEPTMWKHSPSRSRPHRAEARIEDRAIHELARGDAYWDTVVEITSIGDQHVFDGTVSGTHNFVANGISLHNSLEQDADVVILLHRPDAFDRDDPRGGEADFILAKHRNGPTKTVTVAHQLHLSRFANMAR

Protein RecA = target: T5, Protein RecA (Mycobacterium tuberculosis, UniProt P9WHJ3); test: Fluorescence Cell-Free Homogeneous Dose Retest to Identify Inhibitors of RecA-Intein Splicing Activity. [Related pubchem assays (depositor defined):AID2097, AID2223, AID489010, AID492950]; type: functional
T5 sequence (P9WHJ3 whole entry): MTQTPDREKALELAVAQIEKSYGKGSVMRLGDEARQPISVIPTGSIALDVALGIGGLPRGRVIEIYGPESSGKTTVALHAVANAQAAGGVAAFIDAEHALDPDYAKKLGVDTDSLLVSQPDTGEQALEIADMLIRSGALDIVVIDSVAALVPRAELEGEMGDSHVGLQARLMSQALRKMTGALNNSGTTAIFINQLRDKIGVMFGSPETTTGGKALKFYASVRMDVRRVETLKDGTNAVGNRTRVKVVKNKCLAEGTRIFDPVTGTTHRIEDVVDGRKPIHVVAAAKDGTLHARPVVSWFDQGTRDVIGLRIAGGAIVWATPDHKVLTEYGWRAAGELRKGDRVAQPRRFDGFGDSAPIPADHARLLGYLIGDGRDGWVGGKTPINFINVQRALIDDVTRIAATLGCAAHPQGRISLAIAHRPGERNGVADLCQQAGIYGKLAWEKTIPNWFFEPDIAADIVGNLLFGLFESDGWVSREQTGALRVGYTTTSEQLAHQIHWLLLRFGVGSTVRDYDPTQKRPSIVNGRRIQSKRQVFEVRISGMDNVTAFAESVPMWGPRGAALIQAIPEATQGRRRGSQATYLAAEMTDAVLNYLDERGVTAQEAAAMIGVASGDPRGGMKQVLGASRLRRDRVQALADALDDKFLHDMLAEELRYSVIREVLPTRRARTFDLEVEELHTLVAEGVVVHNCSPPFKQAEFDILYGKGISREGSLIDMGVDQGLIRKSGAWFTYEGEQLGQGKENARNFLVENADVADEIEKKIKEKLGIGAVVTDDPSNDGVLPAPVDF

Genome polyprotein = Genome polyprotein (dengue virus type 2, UniProt P29990); test: flavivirus cap methylation enzyme inhibition – biochemical, confirmation dose response, primary screen (AID 588689); type: functional
[10] = target: Mitochondrial peptide methionine sulfoxide reductase (Bos taurus, UniProt P54149); test: Absorbance-based biochemical high throughput dose response assay for activators of Methionine sulfoxide reductase A (MsrA).; type: functional
[11] = target: Matrix metalloproteinase-14 (Homo sapiens, UniProt P50281); test: Dose Response confirmation of uHTS hits for a small molecule inhibitors of MT1-MMP activation in a fluorescence assay set 2.; type: functional
Caspase-6 = Caspase-6 (Homo sapiens, UniProt P55212); test: inhibition of CASP6 peptide cleavage – biochemical, VEID-R110 fluorescence, cherry-pick, dose response (AID 720632)
Beta-galactosidase = Beta-galactosidase (Escherichia coli, UniProt Q8VNN2); test: Dose response counterscreen for EBI2 assay utilizing the enzyme, b-galactosidase.; type: functional
[12] = target: T6, Beta-2 adrenergic receptor (Homo sapiens, UniProt P07550); test: Dose response for HTS for Beta-2AR agonists via FAP method from Powderset1.; type: functional
[13] = target: T6, Beta-2 adrenergic receptor; test: ADRB2 activation measured by internalization – cell-based, FAP fluorogen, flow cytometry, cherry pick 1, dose response (AID 588763); type: functional

T6 sequence (P07550 whole entry): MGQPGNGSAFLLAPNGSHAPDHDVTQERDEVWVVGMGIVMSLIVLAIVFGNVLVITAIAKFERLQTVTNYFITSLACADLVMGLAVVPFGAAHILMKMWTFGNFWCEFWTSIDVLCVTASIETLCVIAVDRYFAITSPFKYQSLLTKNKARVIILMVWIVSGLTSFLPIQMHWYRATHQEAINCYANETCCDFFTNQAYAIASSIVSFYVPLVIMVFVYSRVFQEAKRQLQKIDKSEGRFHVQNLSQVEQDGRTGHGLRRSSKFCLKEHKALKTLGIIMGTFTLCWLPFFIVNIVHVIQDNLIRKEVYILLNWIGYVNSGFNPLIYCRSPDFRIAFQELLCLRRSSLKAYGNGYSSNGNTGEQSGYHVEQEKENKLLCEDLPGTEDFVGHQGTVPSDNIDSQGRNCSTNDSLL
T1 sequence (P11940 whole entry, the tested form may be a part): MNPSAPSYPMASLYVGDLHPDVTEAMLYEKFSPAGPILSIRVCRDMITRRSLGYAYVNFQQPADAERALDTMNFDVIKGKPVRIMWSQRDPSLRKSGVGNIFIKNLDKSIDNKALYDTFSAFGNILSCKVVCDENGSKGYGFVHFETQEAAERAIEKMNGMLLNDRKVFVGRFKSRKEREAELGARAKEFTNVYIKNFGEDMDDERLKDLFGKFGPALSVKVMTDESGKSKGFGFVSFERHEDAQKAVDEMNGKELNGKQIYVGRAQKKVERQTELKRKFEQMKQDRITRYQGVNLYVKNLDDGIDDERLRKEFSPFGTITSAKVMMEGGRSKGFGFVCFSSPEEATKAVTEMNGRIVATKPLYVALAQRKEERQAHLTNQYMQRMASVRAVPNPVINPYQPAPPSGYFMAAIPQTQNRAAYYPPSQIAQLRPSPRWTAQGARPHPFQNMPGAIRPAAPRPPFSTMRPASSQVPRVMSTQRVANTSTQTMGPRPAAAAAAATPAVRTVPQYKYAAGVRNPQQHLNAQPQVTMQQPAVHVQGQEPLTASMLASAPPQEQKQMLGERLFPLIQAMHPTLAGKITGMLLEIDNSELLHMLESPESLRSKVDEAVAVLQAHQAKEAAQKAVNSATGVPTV
Chain of Nuclear receptor subfamily 5 group A member 2 (O00482 whole entry): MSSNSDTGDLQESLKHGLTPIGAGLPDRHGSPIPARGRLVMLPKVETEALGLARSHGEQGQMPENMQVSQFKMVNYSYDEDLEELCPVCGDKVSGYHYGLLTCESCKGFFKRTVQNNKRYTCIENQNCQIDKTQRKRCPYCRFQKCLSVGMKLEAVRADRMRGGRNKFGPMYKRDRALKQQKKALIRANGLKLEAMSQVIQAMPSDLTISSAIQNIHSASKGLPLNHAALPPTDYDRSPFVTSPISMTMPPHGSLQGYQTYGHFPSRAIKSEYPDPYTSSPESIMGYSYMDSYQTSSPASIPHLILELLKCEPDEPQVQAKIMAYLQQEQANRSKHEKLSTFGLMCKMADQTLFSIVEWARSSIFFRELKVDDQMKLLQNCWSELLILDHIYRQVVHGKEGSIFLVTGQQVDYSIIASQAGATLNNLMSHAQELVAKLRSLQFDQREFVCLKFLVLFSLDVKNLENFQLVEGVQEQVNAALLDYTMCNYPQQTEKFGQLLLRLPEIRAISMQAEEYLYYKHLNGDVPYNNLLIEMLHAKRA
Chain of Beta-galactosidase (Q8VNN2 whole entry): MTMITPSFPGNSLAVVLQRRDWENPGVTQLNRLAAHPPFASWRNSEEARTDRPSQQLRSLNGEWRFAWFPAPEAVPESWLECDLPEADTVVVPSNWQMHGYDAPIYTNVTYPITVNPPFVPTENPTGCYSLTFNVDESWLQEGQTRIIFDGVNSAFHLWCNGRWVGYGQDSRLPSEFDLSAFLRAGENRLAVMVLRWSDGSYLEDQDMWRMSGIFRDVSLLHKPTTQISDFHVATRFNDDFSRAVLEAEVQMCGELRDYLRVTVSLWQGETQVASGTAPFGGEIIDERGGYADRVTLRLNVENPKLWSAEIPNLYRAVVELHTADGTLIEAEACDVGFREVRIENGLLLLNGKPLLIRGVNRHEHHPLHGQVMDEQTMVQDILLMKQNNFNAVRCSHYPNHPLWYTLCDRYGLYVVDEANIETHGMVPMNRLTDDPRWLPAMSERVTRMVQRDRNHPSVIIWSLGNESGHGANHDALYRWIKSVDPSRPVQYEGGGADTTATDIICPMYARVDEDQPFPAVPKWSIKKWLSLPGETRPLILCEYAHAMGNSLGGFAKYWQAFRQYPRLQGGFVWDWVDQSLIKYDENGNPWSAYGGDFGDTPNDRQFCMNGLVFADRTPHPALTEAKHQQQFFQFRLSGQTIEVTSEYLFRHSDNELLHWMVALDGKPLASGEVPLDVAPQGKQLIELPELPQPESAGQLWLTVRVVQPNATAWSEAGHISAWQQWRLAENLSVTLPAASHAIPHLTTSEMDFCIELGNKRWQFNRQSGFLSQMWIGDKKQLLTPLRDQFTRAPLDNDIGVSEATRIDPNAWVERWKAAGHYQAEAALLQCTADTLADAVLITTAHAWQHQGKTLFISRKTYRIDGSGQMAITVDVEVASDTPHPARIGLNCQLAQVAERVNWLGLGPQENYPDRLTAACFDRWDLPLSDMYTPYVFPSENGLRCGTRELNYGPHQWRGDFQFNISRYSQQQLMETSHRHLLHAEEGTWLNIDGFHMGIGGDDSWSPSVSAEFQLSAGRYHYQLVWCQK
Chain of 5-hydroxytryptamine receptor 2A (P35363 whole entry): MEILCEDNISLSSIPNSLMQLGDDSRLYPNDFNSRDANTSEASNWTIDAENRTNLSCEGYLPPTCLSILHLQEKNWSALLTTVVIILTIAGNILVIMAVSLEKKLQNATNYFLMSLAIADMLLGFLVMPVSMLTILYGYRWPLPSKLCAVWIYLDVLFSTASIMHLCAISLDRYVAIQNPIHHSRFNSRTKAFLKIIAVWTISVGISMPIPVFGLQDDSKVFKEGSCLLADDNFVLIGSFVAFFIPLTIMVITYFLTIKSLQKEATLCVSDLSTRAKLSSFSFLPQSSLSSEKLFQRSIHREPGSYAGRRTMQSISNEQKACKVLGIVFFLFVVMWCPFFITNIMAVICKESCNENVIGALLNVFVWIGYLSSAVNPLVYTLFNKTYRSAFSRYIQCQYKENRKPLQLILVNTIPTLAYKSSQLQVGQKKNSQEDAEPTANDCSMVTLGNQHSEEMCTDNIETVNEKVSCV
Chain of Caspase-6 (P55212 24-179 limits assumed): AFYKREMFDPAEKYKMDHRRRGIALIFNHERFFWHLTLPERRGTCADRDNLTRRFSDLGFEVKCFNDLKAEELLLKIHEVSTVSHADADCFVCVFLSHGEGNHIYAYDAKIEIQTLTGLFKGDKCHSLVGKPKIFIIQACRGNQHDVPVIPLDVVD
Chain of Caspase-6 (P55212 194-293 limits assumed): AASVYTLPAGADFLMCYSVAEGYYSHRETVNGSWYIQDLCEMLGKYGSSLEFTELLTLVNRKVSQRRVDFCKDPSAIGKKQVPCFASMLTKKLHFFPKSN
Chain of Steroidogenic factor 1 (Q13285 whole entry): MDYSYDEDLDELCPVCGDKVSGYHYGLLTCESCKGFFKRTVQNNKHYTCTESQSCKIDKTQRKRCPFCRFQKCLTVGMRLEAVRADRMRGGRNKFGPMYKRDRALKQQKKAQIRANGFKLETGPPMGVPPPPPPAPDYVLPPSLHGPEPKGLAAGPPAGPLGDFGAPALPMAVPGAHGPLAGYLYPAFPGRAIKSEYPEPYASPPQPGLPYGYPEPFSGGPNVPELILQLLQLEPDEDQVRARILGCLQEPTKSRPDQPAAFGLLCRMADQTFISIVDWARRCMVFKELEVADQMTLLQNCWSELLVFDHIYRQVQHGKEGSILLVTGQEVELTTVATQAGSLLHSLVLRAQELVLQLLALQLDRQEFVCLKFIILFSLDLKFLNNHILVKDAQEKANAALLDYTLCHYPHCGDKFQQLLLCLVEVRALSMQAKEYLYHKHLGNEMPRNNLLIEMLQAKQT
Chain of Genome polyprotein (P29990 2492-3391 limits assumed): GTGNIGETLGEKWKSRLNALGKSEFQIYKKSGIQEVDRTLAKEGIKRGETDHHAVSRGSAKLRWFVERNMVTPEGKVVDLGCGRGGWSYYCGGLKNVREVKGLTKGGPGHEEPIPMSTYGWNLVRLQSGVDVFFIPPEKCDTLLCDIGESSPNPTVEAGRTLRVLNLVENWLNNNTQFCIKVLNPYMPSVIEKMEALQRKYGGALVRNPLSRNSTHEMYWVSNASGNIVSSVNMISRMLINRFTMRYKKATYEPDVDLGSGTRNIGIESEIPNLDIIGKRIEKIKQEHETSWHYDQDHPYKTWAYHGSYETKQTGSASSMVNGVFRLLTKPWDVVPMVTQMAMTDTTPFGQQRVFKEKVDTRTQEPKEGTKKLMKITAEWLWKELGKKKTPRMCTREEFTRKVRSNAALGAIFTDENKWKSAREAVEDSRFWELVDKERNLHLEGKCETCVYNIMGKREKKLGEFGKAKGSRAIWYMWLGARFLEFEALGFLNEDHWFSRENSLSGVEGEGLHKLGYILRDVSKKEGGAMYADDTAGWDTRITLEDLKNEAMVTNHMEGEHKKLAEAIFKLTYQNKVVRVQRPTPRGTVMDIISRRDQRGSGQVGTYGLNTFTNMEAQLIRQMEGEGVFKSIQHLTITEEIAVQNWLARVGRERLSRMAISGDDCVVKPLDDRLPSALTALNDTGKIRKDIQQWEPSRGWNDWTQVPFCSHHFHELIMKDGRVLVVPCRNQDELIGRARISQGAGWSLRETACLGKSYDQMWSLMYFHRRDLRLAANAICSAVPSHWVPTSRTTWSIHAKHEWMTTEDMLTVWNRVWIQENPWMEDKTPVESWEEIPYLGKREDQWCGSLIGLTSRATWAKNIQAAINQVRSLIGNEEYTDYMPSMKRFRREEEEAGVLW
Chain of Mitochondrial peptide methionine sulfoxide reductase (P54149 whole entry): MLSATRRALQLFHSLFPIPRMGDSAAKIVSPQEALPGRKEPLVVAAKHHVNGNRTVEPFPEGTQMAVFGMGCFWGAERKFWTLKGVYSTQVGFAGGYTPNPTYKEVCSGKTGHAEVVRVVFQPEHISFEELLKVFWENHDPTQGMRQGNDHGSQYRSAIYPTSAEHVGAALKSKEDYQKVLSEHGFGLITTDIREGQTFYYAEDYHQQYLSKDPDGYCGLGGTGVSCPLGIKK

With Cc1cc2ccccc2n1CCNC(=O)c1ccc(Br)o1 the IC50 [1] was > 66 µM (inactive), the IC50 [2] was > 66 µM (inactive) and the AC50 (Protein S100-A4) was 6.02 µM (active).
In the case of CCN(c1ccc(OC)cc1)c1[nH]cnc2ncnc1-2, the EC50 [3] is reported as 21.8 µM (active), the IC50 (Interleukin-8 [4]) is reported as > 79 µM (inactive) and the IC50 (Interleukin-8 [5]) is reported as 14.5 µM (inactive).
In the case of COC(=O)c1ccc(NC(=O)CSc2nc3ccc[nH]c-3n2)cc1, the IC50 [6] is reported as 35.9 µM (inactive), the IC50 (Steroidogenic factor 1) is reported as 0.978 µM (active) and the IC50 [7] is reported as 35.9 µM (inactive).
With O=C(Cn1cnc2ccccc2c1=O)N1CCN(Cc2ccc3c(c2)OCO3)CC1 the EC50 (Mu-type opioid receptor) was 92.5 µM (inactive) and the EC50 [8] was 16.4 µM (inactive).
For CC(=O)Nc1cccc(C(=O)OC(C)C(=O)NC(=O)NC2CCCCC2)c1 (stereo unspecified), the AC50 (Vero) was 23.6 µM (active).
For C[n+]1c2ccccc2nc2ccc(NCCO)cc21, the AC50 [9] was 19.9 µM (active), the EC50 (Protein RecA) was 2.38 µM (active) and the IC50 (Genome polyprotein) was 18.6 µM (active). The EC50 [10] was 3.53 µM (active), the IC50 [11] was 10.5 µM (active) and the AC50 (Caspase-6) was 3.35 µM (active).
In the case of O=C(/C=C/c1ccc(Cl)cc1)N1CCN(c2c(Cl)cccc2[N+](=O)[O-])CC1, the IC50 (Beta-galactosidase) is reported as > 80 µM (inactive).
With CN(CC(=O)N1CCN(c2ccccn2)CC1)S(=O)(=O)c1ccccc1 the EC50 [12] was 0.0435 µM (active) and the EC50 [13] was 0.274 µM (active).
